Data from PubChem BioAssay (NCI).
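Tested at 5 concentrations; 48 h exposure; 96-well plates; endpoints linearly interpolated, else capped at highest concentration. The concentration for 50% growth inhibition is given as GI50. At the TGI there is no net growth.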

Columns and labels:
Experiment in all cases: NCI tumour cell line growth inhibition, 48 h
HCT-116 colon = tested on: HCT-116 colon
RXF 393 renal = tested on: RXF 393 renal
HL-60(TB) leukemia = tested on: HL-60(TB) leukemia
CCRF-CEM leukemia = tested on: CCRF-CEM leukemia
MCF7 breast = tested on: MCF7 breast
NCI-H522 lung = tested on: NCI-H522 lung
A498 renal = tested on: A498 renal
LOX IMVI melanoma = tested on: LOX IMVI melanoma
MDA-MB-231 breast = tested on: MDA-MB-231 breast
M14 melanoma = tested on: M14 melanoma

Structure (SMILES) | GI50 (HCT-116 colon) [µM] | TGI (HCT-116 colon) [µM] | GI50 (RXF 393 renal) [µM] | TGI (RXF 393 renal) [µM] | GI50 (HL-60(TB) leukemia) [µM] | TGI (HL-60(TB) leukemia) [µM] | GI50 (CCRF-CEM leukemia) [µM] | TGI (CCRF-CEM leukemia) [µM] | GI50 (MCF7 breast) [µM] | TGI (MCF7 breast) [µM] | GI50 (NCI-H522 lung) [µM] | TGI (NCI-H522 lung) [µM] | GI50 (A498 renal) [µM] | TGI (A498 renal) [µM] | GI50 (LOX IMVI melanoma) [µM] | TGI (LOX IMVI melanoma) [µM] | GI50 (MDA-MB-231 breast) [µM] | TGI (MDA-MB-231 breast) [µM] | GI50 (M14 melanoma) [µM] | TGI (M14 melanoma) [µM]
CCCN(CCC)c1ccc(/C=N/NC(=O)c2cccnc2)c(C)c1 | 13.8 | 29.3 | 15.1 | 30.7 | 13.4 | 39.5 | 16.4 | 52.3 | 17.7 | 36.8 | 12.6 | 30 | 1.06 | 3.54 | 13.5 | 27.6 |  |  |  | 
ClCc1ccccc1Cn1cnc2nc(Cl)nc(Cl)c21 | 0.115 | 0.236 |  | 2.94 | 1.35 | 8.45 | 0.104 | 0.305 |  |  | 2.94 | 7.17 | 2.13 | 4.83 | 0.137 | 0.301 | 0.219 | 0.642 | 0.851 | 2.46
c1cc[c]([Ge]([O]c2cccc3cccnc23)([c]2ccccc2)[c]2ccccc2)cc1 | 3.41 | 12.7 | 1.88 | 5.49 |  |  |  |  |  |  | 1.9 | 3.74 | 13 | 25.7 | 3.92 | 13.2 |  |  | 5.63 | 17.5
COc1ccc2c(n1)Sc1nc3ccccc3nc1N2 |  | > 100 |  | > 100 |  |  |  | > 100 |  | > 100 |  | > 100 |  | > 100 |  | > 100 |  | 49.7 |  | > 100
COc1ccc2cc3c4cc(OC)c(OC)cc4ccn3c2c1 |  |  |  | > 100 |  | > 100 |  | > 100 |  |  |  | > 100 |  | > 100 |  | > 100 |  |  |  | 
COC(=O)c1c2c(c(C)[n+]([O-])c1C)C(=O)C(NCc1ccccc1)=CC2=O | 2.47 | 9.48 | 2.48 | 7.88 |  |  | 2.98 | 22.3 | 1.65 | 3.73 | 2.45 | 7.62 | 4.72 | 16.1 | 2.72 | 10.2 |  |  | 1.97 | 4.35
COC(=O)[C@H](Cc1cn(C)cn1)NC(=O)[C@H](CC(C)C)NC(=O)Nc1cc(C(F)(F)F)cc(C(F)(F)F)c1 | 2.14 | 4.14 | 3.46 | > 10 | > 10 | > 10 |  |  | 2.52 | 7.76 |  |  | > 10 | > 10 | 4.89 | > 10 | 4.64 | > 10 | > 10 | > 10
Cc1nc2ccccc2c(=O)n1/N=C(\N=Nc1ccccc1)c1ccccc1Cl |  |  |  | 61.8 |  | > 100 |  | > 100 |  |  |  | > 74.4 |  | > 100 |  | > 100 |  |  |  | > 100
COc1cc2c3c(n(CCCN=[N+]=[N-])c(=O)c2cc1OC)-c1ccccc1C3=O | 1.81 | 17.8 |  |  |  |  | 3.37 | > 100 | 5.35 | > 100 | 44.8 | > 100 |  |  | 1.33 | 9.14 | > 100 | > 100 | 1.82 | 13.9
O/N=C1/CCCC/C1=C\c1ccc(Cl)c(Cl)c1 |  | 35.8 |  |  |  | 23 |  | 59.7 |  |  |  |  |  | 84.5 |  | 42.9 |  |  |  | 82.9
O=CCCn1[nH]c(=O)ccc1=O |  | > 100 |  | > 100 |  | > 100 |  | > 100 |  |  |  |  |  | > 100 |  | > 100 |  |  |  | > 100
O=C1CCCc2ccc([N+](=O)[O-])c(O)c21 |  | > 100 |  | > 100 |  | > 100 |  | > 100 |  |  |  | > 100 |  | > 100 |  | > 100 |  |  |  | > 100
NC1=NN(c2ccccc2)C(=O)C1C(=O)C(=O)Nc1ccccc1 (stereo not given) |  | > 100 |  |  |  | > 100 |  | > 100 |  |  |  | > 100 |  | > 100 |  | > 100 |  |  |  | > 100
COc1ccc(C2(Cl)C(Cl)(C(F)(F)F)C2(Cl)C(F)(F)F)cc1 (stereo not given) |  | 23.9 |  | 24.6 |  | 54.9 |  | 33.2 |  |  |  |  |  |  |  | 20.5 |  |  |  | 24.2
C=C(C)CC(C(=O)O)c1ccc(C)cc1 (stereo not given) |  | > 100 |  | > 100 |  |  |  |  |  |  |  |  |  | > 100 |  | > 100 |  |  |  | 
C[C@]12Cc3conc3C(O)=C1CC[C@@H]1C2CC[C@@]2(C)C1CC[C@@H]2O (stereo not given in full) |  |  |  | 44.9 |  | 10.7 |  | 55.5 |  |  |  | 13.5 |  | 57.7 |  | 24.9 |  |  |  | 50
COc1ccc(-c2cnc(-c3ccc(OC)cc3)n2-c2cc(OC)c(OC)c(OC)c2)cc1 | 30.9 | > 100 | 14 | 35.9 |  |  | > 100 | > 100 | 38.5 | > 100 | 29.5 | > 100 | 12.1 | 39.5 | 34.5 | > 100 | 18.4 | 74.3 | 44.7 | > 100
Cn1cnc([N+](=O)[O-])c1Sc1n[nH]c(-c2ccc(Cl)cc2)n1 |  | 58.1 |  | 26.5 |  |  |  | 39.6 |  |  |  | 24.9 |  | 56.1 |  | 30.1 |  |  |  | 33.5
COc1ccc(C)c2sc(N(Cc3cccnc3)C(=O)c3ccc(C#N)cc3)nc12 | 29.2 | > 100 | 26.1 | 99.8 | 31.1 | > 100 | 36.6 | > 100 |  |  | 29.7 | > 100 | 2.21 | 95.5 | 40.8 | > 100 | 38.2 | > 100 | 44.9 | > 100
CC(=O)N1c2ccccc2N(C(C)=O)C1c1ccc(C2N(C(C)=O)c3ccccc3N2C(C)=O)[nH]1 |  | > 100 |  | > 100 |  | > 100 |  | > 100 |  |  |  | > 100 |  | > 100 |  | > 100 |  |  |  | > 100
O=Cc1ccc(-c2ccc(-c3nc4ccccc4s3)cc2)o1 | > 100 | > 100 | 62.7 | > 100 |  |  |  |  | 1.53 | 56.6 | > 100 | > 100 | 3.21 | 18.8 | 60.2 | > 100 | 22 | 68.1 | > 100 | > 100
C=CC12CCCCC1CC(C(=O)OC)=C(O)C2 (stereo not given) |  | > 100 |  | > 100 |  | > 100 |  | > 100 |  |  |  | > 100 |  |  |  | > 100 |  |  |  | > 100
Cc1cc(-c2nc3sc(C)cn3c2/C=N/N=C(N)N)c(C)s1 | 1.79 | 3.37 | 15 | 32.7 | > 100 | > 100 | 2.49 | 5.06 |  |  | 25.7 | > 100 |  |  | 13.3 | 29.8 | 3.49 | 16.3 | 1.7 | 3.11
O=CN/C=C/c1ccccc1 |  | > 100 |  | > 100 |  | > 100 |  | > 100 |  |  |  | > 100 |  | > 100 |  | > 100 |  |  |  | > 100
CCOC(=O)C1CC(=O)C=C2CCCCC21 (stereo not given) |  | > 100 |  | > 100 |  | > 100 |  | > 100 |  |  |  | > 100 |  | > 100 |  | > 100 |  |  |  | > 100
C=CCCn1nc(-c2ccccc2)oc1=O |  | > 100 |  | > 100 |  | > 100 |  | > 100 |  |  |  | > 100 |  | > 100 |  | > 100 |  |  |  | > 100
COc1ccc(OC)c(N2CC(O)=C(c3nc4ccccc4s3)C2=N)c1 | 57.5 | > 100 | 95 | > 100 |  |  | 0.541 | > 100 | 60.8 | > 100 | 17.9 | 78.1 | 18.9 | 59.6 | 45.4 | > 100 | 20.6 | > 100 | > 100 | > 100
C[C@@H]1CC[C@@]2(C)OC(c3ccccc3)[C@H](CO)N2C1=O (stereo not given in full) |  | > 100 |  | > 100 |  |  |  |  |  |  |  |  |  | > 100 |  | > 100 |  |  |  | 
COc1cc(OC)c(C(=O)/C=C/c2ccc(C#N)cc2)c(OC)c1 | 1.07 | 3.82 | 1.39 | 4.23 |  |  | 1.37 | 15 | 1.49 | > 50 | 1.04 | 2.92 | 1.33 | 3.95 | 1.37 | 5.47 | 2.31 | 9.32 | 1.07 | 3.15
N#CC(Sc1ccccc1)C(N)=O (stereo not given) |  | > 100 |  | > 100 |  | > 100 |  | > 100 |  |  |  | > 100 |  | > 100 |  | > 100 |  |  |  | > 100
